Assay results published in US20220184000A1, “USE OF CANNABIDIOL IN THE TREATMENT OF DRAVET SYNDROME” (priority 2019, published 2022).

Experiments:
Scn1a^−/− mice = experiment: Neonatal welfare scoring (TNW) in Scn1a^−/− mice, Study I; format: in vivo
Protocol: 129S-Scn1a^tm1Keammjax heterozygote mice (Jackson Laboratory, USA) were maintained in and bred together to obtain Scn1a^−/− and wild type (WT) animals used for this Study (n=10 per group).
Following genotyping, animals were randomly divided into four groups WT vehicle-treated, WT CBD-treated, Scn1a^−/− vehicle-treated and Scn1a^−/− CBD-treated (n=10/group). They were injected subcutaneously twice daily with either CBD (100 mg/kg) or its vehicle (ethanol:Kolliphor®:0.9% saline=2:1:17) from P8 until P25 or death (whichever was earlier).
A twice daily welfare check was conducted throughout the entire duration of the study. Drug administration was conducted at 0800 h and followed by welfare checks. Conversely, afternoon welfare checks were conducted from 1600 h and followed by drug administration in order to provide the maximum possible time between doses. […]
The parameters used for the welfare assessment were: weight, natural activity (NA; 0-3), reflex/response to touch (RT; 0-3), orbital tightening (OT; 0-2), and body condition score (BC; 1-3). A total neonatal welfare score (TNW; range 0-8) was calculated by adding together scores from NA, RT, and […].
In Study I, the welfare parameters were analysed using SPSS 24 (IBM SPSS Statistics®, UK), whilst survival data were analysed using GraphPad Prism 6 software (GraphPad Software, Inc., USA). […] All the data are expressed as mean±SEM. […]

Scn1a^+/− mice = experiment: Static beam test (motor function), Study II; format: in vivo; settings: CBD 100 mg/kg s.c. twice daily
Protocol: Here, Scn1a^+/− were randomly divided into two groups and subcutaneously injected with either CBD (100 mg/kg twice daily; n=12) or its vehicle (ethanol:Kolliphor®:0.9% saline=2:1:17; n=29) from P8 onwards until P52 or death (whichever was earlier).
The static beam task was further employed to analyse balance and coordination (Sedy, Urdzikova, Jendelova, & Sykova, 2008), where the animals were required to walk along a cylindrical elevated beam (100 cm long, 0.9 cm diameter and 50 cm height from floor) and enter a dark enclosure at the beam end. The mice were habituated to the task for three consecutive days before the test day. […] The test was video monitored (Sony DCR-SX21E) and blinded offline analysis was conducted (Observer XT 12, Noldus, The Netherlands) to evaluate the average number of foot slips made from two consecutive trials.
In Study II, the data were analysed in GraphPad Prism 6 software. […] Data obtained from rotarod, gait, social interaction (active interaction), EPM, sucrose preference, RAM (RME) tests were normally distributed and the differences between the three groups were analysed by one-way ANOVA. […] Parametric data are presented in scattered dot plot in the figures and are expressed as mean±SEM. Non-parametric data are presented in box plot in the figures and are expressed as median, min to max, and interquartile range (IQR). […]

Q: `C=C(C)[C@@H]1CCC(C)=C[C@H]1c1c(O)cc(CCCCC)cc1O` [CBD, cannabidiol] was tested. Which “mean total neonatal welfare (TNW) score” value (Scn1a^−/− mice; Scn1a^−/− CBD-treated group, CBD 100 mg/kg s.c. twice daily from P8 until P25 or death, n=10, mean±SEM, score range 0-8, vehicle group 3.66±0.04) did it give?
A: Its value is 2.85±0.04.

Q: What about the “welfare scores versus vehicle-treated Scn1a^−/− mice (post hoc)” value (Scn1a^−/− mice; from P12 to P16, CBD 100 mg/kg s.c. twice daily, p<0.01, FIG. 1A) of the same compound?
A: Its value is “delayed the worsening of welfare scores”.

Q: What about the “number of foot slips, Scn1a^+/− CBD-treated versus Scn1a^+/− vehicle-treated” value (Scn1a^+/− mice; p=0.23, FIG. 3B) of the same compound?
A: Its value is “no significant difference”.

Q: What about the “number of foot slips, Scn1a^+/− CBD-treated versus WT vehicle-treated” value (Scn1a^+/− mice; p=0.48) of the same compound?
A: The value was “no significant difference”.
